Test results: patent US20250163052A1, “cGAS INHIBITORS AND USES THEREOF” (Cornell University, priority 2022, published 2025)

Key:
h-cGAS = h-cGAS (Homo sapiens, UniProt Q8N884); assay: Cell-free human cGAS enzyme inhibition assay (ATP depletion, Kinase-Glo Max); format: biochemical; conditions: 3 h; for inhibition at 1 µM: read-out: h-cGAS, conc. 1 μM; for inhibition at 10 µM: read-out: h-cGAS, conc. 10 μM
Protocol: Cell-free mouse and human cGAS enzyme inhibition assay (Table 2). Activity of all compounds (in Table 1) against m-cGAS (30 nM) and or h-cGAS, (100 nM) was determined by measuring the conversion of ATP and GTP (100 μM each) to cGAMP in the presence of dsDNA (5 ug/mL) in a reaction buffer composed of Tris-HCl (20 mM, pH7.4), NaCl (150 mM), MnCl2 (0.2 mM, h-cGAS) or MgCl2 (5 mM, m-cGAS) and Tween-20 (0.01%), and the remaining ATP concentration using Kinase-Glo®Max Luminescent Kinase Assay (Promega, Madison, WI), as described (Lama, et. al., 2019). Briefly, 10 μl of a master mix of 0.4 mM ATP, 0.4 mM GTP, 0.02 mg/mL dsDNA in the reaction buffer supplemented with 2 mM DTT was added to reaction wells containing TDI-6570 or TDI-8246 (2× of the desired concentration) in the same buffer ([…]) using a Thermo 8-channel Multidrop Combi dispenser. Next, 10 μl of a 4×m-cGAS (0.120 μM) or h-cGAS (0.4 μM) solution in the reaction buffer supplemented with 2 mM DTT was added to appropriate wells. Similar sets of reactions without cGAS or the inhibitor was set by adding the buffer alone. The reactions with the plates sealed were incubated at 37° C. (1 hour for m-cGAS and 3 hours for h-cGAS) and stopped by addition of 40 μl of the Kinase-Glo®Max. The luminescence was recorded in relative light units (RLUs) using a Biotek Synergy H1 Hybrid plate reader (BioTek, Winooski, VT). […] All reactions were run in triplicates and calculated using GraphPad Prism 9. The values represent mean IC50±S.D.

IFNB = assay: THP1-Dual cells transfected with DNA, Ifnb expression (Quantiluc); format: cell-based; conditions: Homo sapiens; for inhibition at 10 µM: THP-1, 10 μM; for inhibition at 30 µM: THP-1, 30 μM
Protocol: (§1) Evaluation of active cGAS inhibitors in THP1 cells (Table 3). Cellular activity of all compounds (in Table 3) was determined using THP1-Dual™ cells as described (Lama et. al., 2019). THP1-Dual™ cells (Invivogen) (50000 cells in 100 μl media) were seeded into each well of a 96-well plate and treated with compounds at various dilution for 4 hours. Subsequently, cells were transfected with DNA (2 ug/ml) and lipofectamine and incubate the cells were incubated overnight. Ifnb expression was measured in cell supernatant using Quantiluc, nfkb expression was determined using Quantiblue, and cell viability using Promega® CellTiter-Glo®.

THP1 cells = assay: THP1-Dual cells, cell viability (CellTiter-Glo); format: cell-based
Protocol: as §1

Sequence of h-cGAS (Q8N884 whole entry): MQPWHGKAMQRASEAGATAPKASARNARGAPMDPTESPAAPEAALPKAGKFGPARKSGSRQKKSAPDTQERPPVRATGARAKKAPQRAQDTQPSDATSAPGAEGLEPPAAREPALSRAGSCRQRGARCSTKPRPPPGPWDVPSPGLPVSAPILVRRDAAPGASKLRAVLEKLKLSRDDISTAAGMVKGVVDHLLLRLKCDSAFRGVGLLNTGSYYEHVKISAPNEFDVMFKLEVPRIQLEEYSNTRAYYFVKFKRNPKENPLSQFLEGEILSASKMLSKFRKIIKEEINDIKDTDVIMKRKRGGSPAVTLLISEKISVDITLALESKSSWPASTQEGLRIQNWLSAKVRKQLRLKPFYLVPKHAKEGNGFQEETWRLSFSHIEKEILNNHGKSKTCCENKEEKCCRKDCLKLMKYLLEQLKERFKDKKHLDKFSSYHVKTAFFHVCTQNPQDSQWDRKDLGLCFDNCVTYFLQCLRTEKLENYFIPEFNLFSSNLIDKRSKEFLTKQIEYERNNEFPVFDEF

Row | inhibition at 1 µM (h-cGAS) [%] | inhibition at 10 µM (h-cGAS) [%] | SMILES | inhibition at 10 µM (IFNB) [%] | inhibition at 30 µM (IFNB) [%] | Cell viability 10 μM (THP1 cells) | Cell viability 30 μM (THP1 cells)
1 | 25 to 49 | 50 to 74 | O=C(CO)N1CCc2oc3c(Cl)c(Cl)cc(-c4cc[nH]n4)c3c2C1 [Compound 28] | 50 to 74 | 50 to 74 | +++ (+, ++, and +++ mean the compound respectively shows 25-49%; 50-74%; or 75-100% viability to cells) | +++ (+, ++, and +++ mean the compound respectively shows 25-49%; 50-74%; or 75-100% viability to cells)
2 | 25 to 49 | 75 to 100 | O=C(CO)N1CCc2oc3c(Cl)c(Cl)cc(-c4cn[nH]c4)c3c2C1 [Compound 29] | 50 to 74 | 75 to 100 | +++ (+, ++, and +++ mean the compound respectively shows 25-49%; 50-74%; or 75-100% viability to cells) | +++ (+, ++, and +++ mean the compound respectively shows 25-49%; 50-74%; or 75-100% viability to cells)
3 | 0 to 24 | 50 to 74 | O=C(CO)N1CCc2oc3c(Cl)c(Cl)cc(-c4ccco4)c3c2C1 [Compound 30] | < 24 | 25 to 49 | +++ (+, ++, and +++ mean the compound respectively shows 25-49%; 50-74%; or 75-100% viability to cells) | +++ (+, ++, and +++ mean the compound respectively shows 25-49%; 50-74%; or 75-100% viability to cells)
4 | 50 to 74 | 75 to 100 | O=C(CO)N1CCc2oc3c(Cl)c(Cl)cc(-c4nccs4)c3c2C1 [Compound 31] | 50 to 74 | 50 to 74 | +++ (+, ++, and +++ mean the compound respectively shows 25-49%; 50-74%; or 75-100% viability to cells) | +++ (+, ++, and +++ mean the compound respectively shows 25-49%; 50-74%; or 75-100% viability to cells)
5 | 25 to 49 | 50 to 74 | CC(C)(N)C(=O)N1CCc2oc3c(Cl)c(Cl)cc(-c4cc[nH]n4)c3c2C1 [Compound 34] | 75 to 100 | 75 to 100 | +++ (+, ++, and +++ mean the compound respectively shows 25-49%; 50-74%; or 75-100% viability to cells) | − (Cell viability <24%, in THP1 cells is expressed as “−”)
6 | 0 to 24 | 75 to 100 | NCC(=O)N1CCc2c(oc3c(Cl)c(Cl)cc(-c4cncnc4)c23)C1 [Compound 39] | 25 to 49 | 75 to 100 | +++ (+, ++, and +++ mean the compound respectively shows 25-49%; 50-74%; or 75-100% viability to cells) | +++ (+, ++, and +++ mean the compound respectively shows 25-49%; 50-74%; or 75-100% viability to cells)
7 | 50 to 74 | 75 to 100 | Cn1cc(-c2cc(Cl)c(Cl)c3oc4c(c23)CCN(C(=O)CN)C4)cn1 [Compound 40] | 75 to 100 | 75 to 100 | +++ (+, ++, and +++ mean the compound respectively shows 25-49%; 50-74%; or 75-100% viability to cells) | − (Cell viability <24%, in THP1 cells is expressed as “−”)
8 | – | 25 to 49 | O=C(CO)N1CCc2c(sc3c(Cl)c(Cl)cc(-c4cc[nH]n4)c23)C1 [Compound 61] | – | – | – | –
9 | 0 to 24 | 25 to 49 | O=C(CO)N1CCc2c(sc3c(Cl)c(Cl)cc(-c4ccco4)c23)C1 [Compound 64] | – | – | – | –
10 | – | 0 to 24 | CNc1ccc(-c2cc(Cl)c(Cl)c3sc4c(c23)CCN(C(=O)CO)C4)cn1 [Compound 66] | – | – | – | –
11 | – | 25 to 49 | O=C(CO)N1CCc2c(sc3c(Cl)c(Cl)cc(-c4nccs4)c23)C1 [Compound 67] | – | – | – | –
12 | – | 0 to 24 | O=C(CO)N1CCc2c(sc3c(Cl)c(Cl)cc(-c4cccnc4)c23)C1 [Compound 68] | – | – | – | –
13 | – | 0 to 24 | O=C(CO)N1CCc2c(sc3c(Cl)c(Cl)cc(-c4ccncc4)c23)C1 [Compound 69] | – | – | – | –
14 | – | 0 to 24 | O=C(CO)N1CCc2c(sc3c(Cl)c(Cl)cc(-c4cncs4)c23)C1 [Compound 70] | – | – | – | –
